Data taken from patent US20250002854A1, “METHODS OF GENERATING POPULATIONS OF TUMOUR-INFILTRATING T CELLS” (LYTIX BIOPHARMA AS, priority 2016, published 2025).
Square brackets hold non-standard residues; d marks the D form. Ends that are not written are not given here. Dip = N[C@H](C(=O)O)C(c1ccccc1)c1ccccc1

Tests used:
[1] = previous studies by Ausbaucher et al.; cited from earlier work
B16F1 cells [2] = experiment: Release of ATP (luciferin-luciferase); assay type: cell-based, murine; details: 54 μM, up to 120 min
Protocol: Serum-free RPMI 1640 treated cells functioned as a negative and blank control, respectively. Extracellular levels of ATP were measured at the end of the experiment using a luciferin-based ENLITEN ATP Assay kit (Promega, Madison, WI, USA), in which ATP-driven chemoluminescence was recorded on a Luminescence Microplate Reader (Labsystems Luminoskan®, Finland), and expressed as relative light units (RLU).

B16F1 cells [3] = experiment: Release of HMGB1 (Western blot); assay type: cell-based, murine; details: 108 μM
Protocol: B16F1 cells were seeded at a density of 2×10^5 cells/well in 6-well plates in a complete medium, and allowed to adhere overnight. Cells were treated with 108 μM of LTX-401 (4×IC50^4h), and incubated at 37° C. (>95% humidity and 5% CO2) for different time points (10, 30, 60, 90 and 120 minutes). Serum-free RPMI 1640 was used as a negative control, and supernatants (S) were collected and centrifuged at 1,400 g for 5 min before being up-concentrated using Amicon Ultra-0.5 Centrifugal Filter units with Ultracel-50 membrane (Milipore, Norway). Cell lysates (L) were harvested after washing with 2 mL of serum-free RPMI-1640 and subjected to a lysis buffer (mastermix) containing 2×NuPAGE LDS Sample buffer (Invitrogen, Norway), a 1×NuPAGE Sample Reducing Agent (Invitrogen, Norway) and 50% sterile H20. Both supernatants and lysates were boiled at 70° C. for 10 min and resolved on NuPAGE Novex 4-12% Bis-Tris Gels (Millipore, Norway) before being electrotransferred to a polyvindiline difluoride (PVDF) membrane (Millipore, Norway). […]

B16F1 cells [4] = experiment: Release of cytochrome c (ELISA); assay type: cell-based, murine; details: 108 μM
Protocol: B16F1 cells were plated onto 96-well culture plates as previously described above for the MTT assay. Cells were treated with 108 μM (4×IC50^4h) for designated time points (30, 60, 90, 120 and 240 minutes), while control cells were preserved in serum-free RPMI-1640 only until the experimental endpoint. Supernatants were collected and diluted 1/5 in a serum-free RPMI 1640 before being evaluated using a Rat/Mouse Cytochrome c Quantikine ELISA kit (R&D Systems, USA), according to the instructions of the manufacturer. The concentration of cytochrome c was calculated by interpolation values on the provided standard curve.

A375 cells = experiment: Release of HMGB1 (Western blot); assay type: cell-based, human; details: 35 μM, up to 60 min
Protocol: A375 cells were seeded with 3×10^5 cells/well in 6-well plates in a complete media, and allowed to adhere overnight. Cells were treated with LTX-315 or LTX-328 at 35 μM, and incubated at 37° C. and 5% CO2 for different time points (5, 10, 15, 30, 60 min), and negative controls were serum-free RPMI-1650. Supernatants (S) were collected and centrifuged at 1,400 g for five minutes, and cell lysates (L) were harvested after washing with PBS twice and then subsequently lysed using a 4×Sample buffer (Invitrogen, number), 0.1 M DTT (Sigma number) and water. Supernatants were concentrated using Amicon Ultra 50 K centrifugal filters (Millipore UFC505024), and the cell lysate was sonicated. Both supernatants and lysate were boiled and resolved in a 10% sodium dodecyl sulfate polyacrylamide gel electrophoresis (SDS-PAGE), and then electro transferred to a polyvindiline difluoride (PVDF) membrane (Millipore). The membrane was blocked in 5% milk and incubated with the HMGB1 antibody (rabbit, polyclonal, abcam ab 18256); the membrane was then rinsed several times with TBST, incubated with a horseradish peroxidase (HRP)-conjugated secondary antibody (abcam ab6721), rinsed again with TBST and then developed using WB Luminol Reagent (Santa Cruz Biotechnology, Heidelberg, Germany).

Murine B16 melanoma = experiment: immunoSEQ TCR repertoire characterisation after intratumoural LTX-315; assay type: in vivo, mice
Protocol: This study was carried out using an “immunoSEQ™” T cell receptor (TCR) repertoire characterisation platform by Adaptive Biotechnologies™. The platform combines novel multiplex PCR1 with highly optimized primer sets and deep sequencing techniques that exclusively target TCR genes. The immunoSEQ platform enables researchers to analyse the adaptive immune system with exceptional depth and specificity.
Murine B16 melanoma cells were harvested, washed and injected intradermally in ten mice. 8 days after tumour injection, peptide treatment was initiated using single intratumoural injections of LTX-315 (1.0 mg LTX-315/50 μl saline) once or twice in five mice. Vehicle control of saline only (0.9% NaCl in sterile H2O) was administered to the other five mice. Animals were then euthanized on day 15.
Tumour tissue (10 mg) and whole blood (150-200 μl) was taken from each mouse for TCR repertoire characterisation analysis. Blood samples provide information regarding the immune repertoire in the periphery, whilst the tumour samples provide a focused view of the repertoire.
Sequence analysis was carried out by Adaptive Biotechnologies™ at a survey-level resolution with respect to the tissue samples and at a deep-level resolution with respect to the blood samples.
Clonality quantitates the extent of mono-or oligoclonal expansion by measuring the shape of the clone frequency distribution. Values range from 0 to 1, where values approaching 1 indicate a nearly monoclonal population. FIG. 15 provides example distribution curves of populations with a clonality of 0.05 (A) and of 0.32 (B).

MCA205 sarcomas = experiment: T-cell depletion, tumour growth of MCA205 sarcomas; assay type: in vivo, C57BL/6 mice; details: three intratumoural daily injections of 300 μg
Protocol: Mice were subcutaneously injected into the right flank with 1×10^6 MCA205 cells. Tumour cell lines were inoculated into C57BL/6 mice. Tumour surfaces (longest dimension×perpendicular dimension) were routinely monitored by caliper. When tumours reached a size of 20-25 mm^2 (day 0), mice were administered intratumourally with three consecutive daily injections of 300 μg LTX-315. In T-cell depletion experiments (FIG. 24), anti-CD4 and anti-CD8 monoclonal antibodies (mAbs) (GK1.5 and 53-6.72, respectively; 200 μg per mouse) or their isotype controls (LTF-2 and 2A3, respectively) were injected intraperitoneally 3 and 4 days before the first LTX-315 injection and continued every other 7 days. All mAbs for in vivo use were obtained from BioXcell (West Lebanon, NH, USA), using the recommended isotype control mAbs.

Compound | mitochondrial membrane potential (TMRE) [1] | extracellular concentration of ATP (B16F1 cells [2]) | time at which HMGB1 translocation was absolute (B16F1 cells [3]) | time at which release of HMGB1 occurs (B16F1 cells [3]) | time at which cytochrome c is present in the supernatant (B16F1 cells [4]) | cytochrome c in supernatant, peak (B16F1 cells [4]; experimental endpoint) | HMGB1 translocation from cell lysate to supernatant (A375 cells) | TCR Template Molecules (Murine B16 melanoma; Blood) | TCRs (T cell estimate) per nucleated cell (%) (Murine B16 melanoma; Blood) | Unique TCRs (Murine B16 melanoma; Blood) | TCR Template Molecules (Murine B16 melanoma; Tissue (tumour)) | antitumor effects in presence of antibodies depleting CD4+ and CD8+ T cells (MCA205 sarcomas)
Cl.Cl.NCCNC(=O)C(CN)(CCCc1ccccc1)CCCc1ccccc1 [LTX-401] | did not compromise the mitochondrial membrane potential | quickly rose 60 min after initiating treatment | 90 min | 30 min | 120 min | approximately 40 ng/ml |  |  |  |  |  | 
K-K-W-W-K-K-W-Dip-K-NH2 (KKWWKKW[Dip]K-NH2) [LTX-315] |  |  |  |  |  |  | gradual translocation from the cell lysate to the supernatant detected | 135,283 | 17.4% | 116,120 | 12,331 | completely abrogated the antitumor effects
